Results on one compound are retold here after patent US20130123287A1, “CONTROL AGENT FOR SOFT ROT AND CONTROL METHOD FOR THE SAME” (ISHIHARA SANGYO KAISHA, LTD., priority 2010, published 2013).

Molecules are shown by their SMILES.

The subject of experiment [1] is soft rot of Chinese cabbage. Description: Test for controlling soft rot of Chinese cabbage, Example 2 / Comparative Example 2 (field, cultivar Harebutai 65). The class given is in vivo. To be noted: 1/1000 dilution, 300 L/10a sprayed twice on stems and leaves, 64 days after start. From the text:
Frequency of the disease=[sigma(number of plants with the onset of the disease at each severity level*index of the onset of the disease)/(plants examined*4)]*100
Disease control value=[1-(frequency of the disease in the treated lot/frequency of the disease in the non-treated lot)]*100
• 0: No onset • 1: Onset in some of outer leaves (shippable) • 2: Onset in outer leaves and some of head leaves (by removing damaged parts, the resulting cabbage can be shipped as small cabbage but is ranked as grade B). • 3: Most of head leaves are inflicted with the onset of the disease or with severer damages (not shippable) • 4: Whole cabbage plant is inflicted with the onset of the disease and is dead.
200 g/l Azoxystrobin (Amistar 20 FLOWABLE [trade name], manufactured by Syngenta Japan K.K.) was adjusted to 500 g ai/10a (0.5 g/m^2, 2500 ml Product/10a) as the amount of the active ingredient and to 150 L/10a as the volume of diluent water.
30% w/w triflumizol (TRIFUMIN WP [trade name], manufactured by Nippon Soda Co., Ltd.) was adjusted to 500 g ai/10a (0.5 g/m^2, 1667 g Product/10a) as the amount of the active ingredient and to 150 L/10a as the volume of diluent water.
100 g/1 cyazofamid (RANMAN PLOWABLE [trade name], manufactured by Ishihara Sangyo Kaisha, Ltd.) was adjusted to 500 g ai/10a (0.5 g/m^2, 5000 ml Product/10a) as the amount of the active ingredient and to 150 L/10a as the volume of diluent water.
50% w/w penthiopyrad (GAIA WG [trade name], manufactured by Mitsui Chemicals Agro, Inc.) was adjusted to 500 g ai/10a (0.5 g/m^2, 1000 g Product/10a) as the amount of the active ingredient and to 150 L/10a as the volume of diluent water.
50 g/l flusulfamide (SCABLOCK SC [trade name], manufactured by Mitsui Chemicals Agro, Inc.) was adjusted to 500 g ai/10a (0.5 g/m^2, 10000 ml Product/10a) as the amount of the active ingredient and to 150 L/10a as the volume of diluent water.
400 g/1 chlorothalonil (Daconil 1000 [the trade name], manufactured by Sumitomo Chemical, Limited) was adjusted to 1000 g ai/10a (1.0 g/m^2, 2500 ml Product/10a) as the amount of the active ingredient and to 150 L/10a as the volume of diluent water.
After spreading an agricultural mulch-sheet and opening planting holes (diameter of about 5 cm) for permanent planting through the mulch-sheet, the spray solutions prepared as described above were sprayed onto the planting holes such that the amount of treated active ingredient of chlorothalonil was 1.0 g/m^2 (150 L per 10a) and the amount of each of the remaining spray solutions was 0.5 g/m^2 (150 L per 10a), followed by air-drying; subsequently, seedlings of Chinese cabbage (cultivar Harebutai 65) grown for 4 weeks in cell mold trays (128 holes/nursery box) were planted such that 19 seedlings were planted in each test lot having an area of 2.4 m^2 with two replications.
Preparation was performed by diluting streptomycin (Mycin 20 wettable powder solution [under the trade name] manufactured by Hokko Chemical Industry Co., Ltd.) with water to 1/1000.
In a field spread with the agricultural mulch-sheet, Chinese cabbage seedlings (cultivar: Harebutai 65) grown by the same method as in Example 2 were planted by the same method as in Example 2, for spraying the spray solution of streptomycin prepared above in (1) (at each spray volume of 300 L/10a) twice (27 days and 48 days after the planting of the seedlings) on the stems and leaves with a sprayer.
64 days after the start of the tests, all the plants in each lot were examined about the severity level of the disease to assess the frequency of the disease and the disease control value. In the same manner as described above, the frequency of the disease and the disease control value were determined. Additionally, soft rot is a disease with damages hardly controlled, so even a chemical at the level C determined by the tests of the effects can practically be used.

Experiment [2] deals with bacteria causing the soft rot (Erwinia carotovora). In words: Inhibition test of growth of bacteria causing soft rot, Reference Test Example 2. It is filed as cell-based. To be noted: for formed colonies (growth state), grade: PSA medium, 27 degrees Celsius, 2 days. From the text: Inhibition test of growth of bacteria causing soft rot of potato An inhibition test of the growth of bacteria causing the soft rot was done, when a control agent was directly applied to the bacteria causing the soft rot. A given volume of each pesticide of azoxystrobin (Amistar-20 FLOWABLE [trade name], manufactured by Syngenta Japan K.K.), penthiopyrad (GAIA WG [trade name], manufactured by Mitsui Chemicals Agro, Inc.), flusulfamide (SCABLOCK SC [trade name] manufactured by Mitsui Chemicals Agro, Inc.), and streptomycin (Mycin Wettable powder [trade name] manufactured by Hokko Chemical Industry Co., Ltd.) was added together with a suspension of the bacteria causing the soft rot (Erwinia carotovora) to a preliminarily dissolved PSA culture medium (55 degrees Celsius) for subsequent thorough agitation, which was then spread on a plate for culturing at 27 degrees Celsius for 2 days, to examine the growth state. Subsequently, the formed colonies were examined according to the following three grades. • +: at the same level as the level of non-treated lot.
Plus or minus: apparently less than the colonies of the non-treated lot. • −: almost no colonies observed.

With `[H]/N=C(/N)N[C@H]1[C@H](O)[C@@H](O)[C@H](O[C@@H]2O[C@@H](C)[C@](O)(C=O)[C@H]2O[C@@H]2O[C@@H](CO)[C@H](O)[C@@H](O)[C@@H]2NC)[C@@H](N/C(N)=N\[H])[C@@H]1O` [Streptomycin], the Determination of effect result in experiment [1] is given as “B (B: Effective (41 to 60 disease control value))”. Besides, the “formed colonies (growth state), grade” value in experiment [2] (1 ppm active ingredient) is “−, −”; in experiment [2] (10 ppm active ingredient) it was “−, −”. In addition, the “direct antibacterial activity against Erwinia carotovora (in words)” value in experiment [2] (active ingredient concentration of 1 ppm) is on record as “exerted a direct antibacterial activity”.
